# Patent US6685617B1, “Inhibitors of α4β1 mediated cell adhesion” (Pharmacia & Upjohn Company, priority 1998, dated 2004)
# Target: T1, α4β1 integrin (Jurkat T-cell adhesion to IL-1 stimulated endothelial cell monolayers) (Homo sapiens, UniProt P05556+P13612)
# T1 construct: a T-cell line, Jurkat, known to express the α4β1 integrin; host or cells: Jurkat T-cell line
# Assay: Jurkat-endothelial cell adhesion assay (Jurkat EC)
# Format: cell-based
# Details: Jurkat cells on IL-1 stimulated human umbilical vein endothelial cells; read-out: JK/EC (Jurkat EC Assay IC50 value range)
# Procedure: Jurkat-endothelial Cell Adhesion Assay:
# The following assay established the activity of the present compounds in inhibiting β1-mediated cell adhesion in a representative in vitro system. This assay measures the adhesive interactions of a T-cell line, Jurkat, known to express the α4β1 integrin, to endothelial monolayers in the presence of test compounds. The test compounds were added in increasing concentrations to T-cells and then the T-cell compound mixture was added to IL-1 stimulated endothelial cell monolayers. The plates were incubated, washed and the percentage of attached cells was quantitated.
# Human umbilical vein endothelial cells were purchased from Clonetics (San Diego, Calif.) at passage number 2. The cells were grown on 0.5% porcine skin gelatin pre-coated flasks (Sigma, St. Louis Mo.) in EGM-UV media (Clonetics, San Diego, Calif.) supplemented with 10% fetal bovine serum. Cells are refed every 2-3 days reaching confluence by day 4 to 6. […] The endothelial cells are not used following passage 6.
# The T-cell line Jurkat was obtained from American Type Tissue Culture Collection (Rockville, Md.) and the cells were cultured in RPMI containing 10% fetal calf serum. The cells were washed twice in Hank's Balanced Salt Solution (HBSS) and resuspended in Dulbecco's Minimal Eagle's Media (DMEM) containing 2.5 mg/ml Human Serum Albumin (HSA). Jurkat cells (1×10^6 cells/ml) were stained with 10 ng/ml BCECF-AM (Molecular Probes, Eugene, Oreg.)) in HBSS without phenol red. The cells were loaded with BCECF for 60 minutes in the dark at 370C, washed 2 times, and resuspended in DMEM-HSA solution.
# Confluent endothelial monolayers, grown in 96-well tissue culture plates, were stimulated for 4 hr. at 37° C. with 0.1 ng/ml (˜50 U/ml) recombinant IL-1 (Amgen, Thousand Oaks, Calif.). Following this incubation, the monolayers were washed twice with HBSS and 0.1 ml of DMEM−HSA solution was added. Jurkat cells (5×10^5 cells) were combined with the appropriate concentration of the test compound and 0.1 ml of the Jurkat cell-compound mixture was added to the endothelial cell monolayers. Generally, 100, 20, 5 and 1.25 μM compound concentrations were tested. […] The plates were placed on ice for 5 minutes to allow for Jurkat cell settling and the plates were incubated at 37° C. for 20 minutes. Following this incubation, the monolayers were washed twice with PBS containing 1 mM calcium chloride and 1 mM magnesium chloride and the plates were read using a Millipore Cytofluor 2300 (Marlboro, Mass.). Fluorescence in each well was measured as Arbitrary Fluorescence Units and percent adhesion in the absence of compound was adjusted to 100% and the % adhesion in the presence of compound was calculated. Monolayers were also fixed in 3% paraformaldehyde and evaluated microscopically to verify the adhesion. This procedure is a modification of a previously published method (Cardarelli et al., J. Biol. Chem. 269:18668-18673 (1994)).
# T1 sequence (P13612 34-1032): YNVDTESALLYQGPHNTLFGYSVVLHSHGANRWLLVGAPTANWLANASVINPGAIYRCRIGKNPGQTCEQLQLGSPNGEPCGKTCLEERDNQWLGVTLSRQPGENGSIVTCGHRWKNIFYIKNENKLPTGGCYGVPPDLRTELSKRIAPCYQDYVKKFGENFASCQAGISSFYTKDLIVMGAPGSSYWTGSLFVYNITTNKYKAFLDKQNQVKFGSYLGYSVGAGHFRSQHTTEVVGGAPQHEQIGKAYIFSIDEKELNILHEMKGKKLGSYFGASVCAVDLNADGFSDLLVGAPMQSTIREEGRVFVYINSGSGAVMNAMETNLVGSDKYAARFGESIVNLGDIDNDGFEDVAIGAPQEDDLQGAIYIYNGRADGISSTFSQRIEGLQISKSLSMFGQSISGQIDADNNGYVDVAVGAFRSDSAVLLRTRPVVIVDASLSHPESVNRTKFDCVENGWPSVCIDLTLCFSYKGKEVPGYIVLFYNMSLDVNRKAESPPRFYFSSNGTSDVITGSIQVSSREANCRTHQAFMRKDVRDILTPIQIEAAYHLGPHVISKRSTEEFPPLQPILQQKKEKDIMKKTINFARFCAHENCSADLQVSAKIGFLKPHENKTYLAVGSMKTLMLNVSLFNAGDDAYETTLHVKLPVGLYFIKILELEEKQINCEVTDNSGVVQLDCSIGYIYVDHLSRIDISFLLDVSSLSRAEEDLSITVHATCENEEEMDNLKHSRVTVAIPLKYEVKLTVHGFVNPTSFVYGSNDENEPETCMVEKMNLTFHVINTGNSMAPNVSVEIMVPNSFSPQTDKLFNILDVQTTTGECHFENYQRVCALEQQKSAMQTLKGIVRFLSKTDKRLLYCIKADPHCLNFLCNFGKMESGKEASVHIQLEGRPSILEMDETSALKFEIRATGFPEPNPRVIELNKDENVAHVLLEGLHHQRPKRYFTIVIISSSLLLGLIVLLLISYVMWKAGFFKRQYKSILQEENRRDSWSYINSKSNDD
# T1 sequence (P05556 21-798): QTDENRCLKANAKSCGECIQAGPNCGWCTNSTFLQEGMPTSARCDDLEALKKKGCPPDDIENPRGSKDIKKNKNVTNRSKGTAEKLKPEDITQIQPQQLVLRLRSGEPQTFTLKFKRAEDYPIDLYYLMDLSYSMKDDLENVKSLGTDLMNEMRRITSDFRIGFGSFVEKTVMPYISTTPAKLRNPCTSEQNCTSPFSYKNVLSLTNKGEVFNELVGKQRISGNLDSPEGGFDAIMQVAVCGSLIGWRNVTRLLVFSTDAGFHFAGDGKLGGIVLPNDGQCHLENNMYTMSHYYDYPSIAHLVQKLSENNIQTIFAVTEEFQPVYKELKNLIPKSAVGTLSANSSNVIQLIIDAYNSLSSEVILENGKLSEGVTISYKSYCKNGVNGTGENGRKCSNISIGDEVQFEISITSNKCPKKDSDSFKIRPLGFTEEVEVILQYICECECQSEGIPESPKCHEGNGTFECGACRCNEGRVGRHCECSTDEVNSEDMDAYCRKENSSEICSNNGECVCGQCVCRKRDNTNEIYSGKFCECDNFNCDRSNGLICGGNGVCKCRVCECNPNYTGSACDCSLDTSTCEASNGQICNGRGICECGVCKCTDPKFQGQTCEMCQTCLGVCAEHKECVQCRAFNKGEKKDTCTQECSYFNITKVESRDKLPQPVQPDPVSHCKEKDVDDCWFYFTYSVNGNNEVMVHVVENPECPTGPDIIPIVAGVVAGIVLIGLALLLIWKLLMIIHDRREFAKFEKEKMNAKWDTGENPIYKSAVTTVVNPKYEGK
row,Structure (SMILES),IC50 [µM]
1,"CCOC(=O)N1CSC[C@@H]1C(=O)N[C@@H](Cc1ccc(OCc2c(Cl)cccc2Cl)cc1)C(N)=O (relative stereo) [Example 90, [S-(R*,R*)]-4-[[[1-[[4-[(2,6-Dichlorophenyl)methoxy]phenyl]methyl]-2-amino-2-oxoethyl]amino]carbonyl]-3-thiazolidinecarboxylic Acid 3-Ethyl Ester]",≥ 1
2,"O=C(C[C@H]1CC[C@@H](C(=O)O)N1Cc1ccccc1)N[C@@H](Cc1ccc(OCc2c(Cl)cccc2Cl)cc1)C(=O)O [Example 94, (5R)-5-[2-[[(1S)-1-Carboxy-2-[4-[(2,6-dichlorophenyl)methoxy]phenyl]ethyl]amino]-2-oxoethyl]-1-(phenylmethyl)-L-proline]",≥ 1
3,"O=C(C[C@@H]1CC[C@H](C(=O)O)N1Cc1ccccc1)N[C@@H](Cc1ccc(OCc2c(Cl)cccc2Cl)cc1)C(=O)O [Example 95, (5S)-5-[2-[[(1S)-1-Carboxy-2-[4-[(2,6-dichlorophenyl)methoxy]phenyl]ethyl]amino]-2-oxoethyl]-1-(phenylmethyl)-D-proline]",≥ 1
4,"COC(=O)CCC1(CCC(=O)N[C@@H](Cc2ccc(NC(=O)c3c(Cl)cccc3Cl)cc2)C(=O)OC)CCC(=O)N1C (stereo partly drawn) [Example 110, 2-[3-[[(1S)-1-[[4-[(2,6-Dichlorobenzoyl)amino]phenyl]methyl]-2-methoxy-2-oxoethyl]amino]-3-oxopropyl]-1-methyl-5-oxo-2-pyrrolidinepropanoic Acid Methyl Ester]",≥ 1
5,"COC(=O)CCC1(CCC(=O)N[C@@H](Cc2ccc(OCc3c(Cl)cccc3Cl)cc2)C(=O)OC)CCC(=O)N1 (stereo partly drawn) [Example 112, 2-[3-[[(1S)-1-[[4-[(2,6-Dichlorophenyl)methoxy]phenyl]methyl]-2-methoxy-2-oxoethyl]amino]-3-oxopropyl]-5-oxo-2-pyrrolidinepropanoic Acid Methyl Ester]",≥ 1
6,"COC(=O)[C@H](Cc1ccc(NC(=O)c2c(Cl)cccc2Cl)cc1)NC(=O)C1CCCCN1C(=O)CCC(=O)O (stereo partly drawn) [Example 163, 2-[[[(1S)-1-[[4-[(2,6-Dichlorobenzoyl)amino]phenyl]methyl]-2-methoxy-2-oxoethyl]amino]carbonyl]-γ-oxo-1-piperidinebutanoic Acid]",≥ 1
7,COC(=O)[C@H](Cc1ccc(NC(=O)c2c(Cl)cccc2Cl)cc1)NC(=O)C1CCCCN1C(=O)CC1(CC(=O)O)CCCC1 (stereo partly shown) [Example 164],≥ 1
8,COC(=O)[C@H](Cc1ccc(NC(=O)c2c(Cl)cccc2Cl)cc1)NC(=O)C1CCCCN1C(=O)CC(C)(C)CC(=O)O (stereo partly shown) [Example 165],≤ 0.25
9,COC(=O)[C@H](Cc1ccc(NC(=O)c2c(Cl)cccc2Cl)cc1)NC(=O)C1CCCCN1C(=O)/C=C\C(=O)O (stereo partly shown) [Example 166],≥ 1
10,O=C(O)CC1(CC(=O)N2CCCCC2C(=O)N[C@@H](Cc2ccc(NC(=O)c3c(Cl)cccc3Cl)cc2)C(=O)O)CCCC1 (stereo partly shown) [Example 168],≥ 1
11,CC(C)(CC(=O)O)CC(=O)N1CCCCC1C(=O)N[C@@H](Cc1ccc(NC(=O)c2c(Cl)cccc2Cl)cc1)C(=O)O (stereo partly shown) [Example 169],≥ 1
12,O=C(O)/C=C\C(=O)N1CCCCC1C(=O)N[C@@H](Cc1ccc(NC(=O)c2c(Cl)cccc2Cl)cc1)C(=O)O (stereo partly shown) [Example 170],≥ 1
13,"O=C(O)CCC(=O)N1CCCC(C(=O)N[C@@H](Cc2ccc(NC(=O)c3c(Cl)cccc3Cl)cc2)C(=O)O)C1 (stereo partly drawn) [Example 174, 3-[[[(1S)-1-Carboxy-2-[4-[(2,6-dichlorobenzoyl)amino]phenyl]ethyl]amino]carbonyl]-γ-oxo-1-piperidinebutanoic Acid]",0.25 to 1
14,"O=C(O)c1ccc(NC(=O)N2CCC(C(=O)N[C@@H](Cc3ccc(NC(=O)c4c(Cl)cccc4Cl)cc3)C(=O)O)CC2)cc1 [Example 175, N-[[1-[[(4-Carboxyphenyl)amino]carbonyl]-4-piperidinyl]carbonyl]-4-[(2,6-dichlorobenzoyl)amino]-L-phenylalanine]",≥ 1
15,CC(=O)CCC(=O)N1CCCC[C@H]1C(=O)N[C@@H](Cc1ccc(NC(=O)c2c(Cl)cccc2Cl)cc1)C(=O)O [Example 179],0.25 to 1
16,COc1ccc(C(=O)N2CCCC[C@H]2C(=O)N[C@@H](Cc2ccc(NC(=O)c3c(Cl)cccc3Cl)cc2)C(=O)O)cc1OC [Example 180],≥ 1

row,Structure (SMILES),IC50 [µM]
1,O=C(O)c1ccc2cc(C(=O)N3CCCC[C@H]3C(=O)N[C@@H](Cc3ccc(NC(=O)c4c(Cl)cccc4Cl)cc3)C(=O)O)ccc2c1 [Example 183],≥ 1
2,O=C(O)CNC(=O)N1CCCC(C(=O)N[C@@H](Cc2ccc(NC(=O)c3c(Cl)cccc3Cl)cc2)C(=O)O)C1 (stereo partly shown) [Example 202],≥ 1
3,O=C(O)c1cccc(C(=O)N2CCCC(C(=O)N[C@@H](Cc3ccc(NC(=O)c4c(Cl)cccc4Cl)cc3)C(=O)O)C2)c1 (stereo partly shown) [Example 205],0.25 to 1
4,O=C(O)c1ccc(NC(=O)N2CCCC(C(=O)N[C@@H](Cc3ccc(NC(=O)c4c(Cl)cccc4Cl)cc3)C(=O)O)C2)cc1 (stereo partly shown) [Example 208],≥ 1
5,O=C(O)CCC(=O)N1CCC(C(=O)N[C@@H](Cc2ccc(NC(=O)c3c(Cl)cccc3Cl)cc2)C(=O)O)CC1 [Example 209],≥ 1
6,O=C(O)CC1(CC(=O)N2CCC(C(=O)N[C@@H](Cc3ccc(NC(=O)c4c(Cl)cccc4Cl)cc3)C(=O)O)CC2)CCCC1 [Example 210],≥ 1
7,CC(C)(CC(=O)O)CC(=O)N1CCC(C(=O)N[C@@H](Cc2ccc(NC(=O)c3c(Cl)cccc3Cl)cc2)C(=O)O)CC1 [Example 211],≥ 1
8,O=C(O)/C=C\C(=O)N1CCC(C(=O)N[C@@H](Cc2ccc(NC(=O)c3c(Cl)cccc3Cl)cc2)C(=O)O)CC1 [Example 212],≥ 1
9,O=C(O)/C=C/C(=O)N1CCC(C(=O)N[C@@H](Cc2ccc(NC(=O)c3c(Cl)cccc3Cl)cc2)C(=O)O)CC1 [Example 213],≥ 1
10,COCCC(=O)N1CCC(C(=O)N[C@@H](Cc2ccc(NC(=O)c3c(Cl)cccc3Cl)cc2)C(=O)O)CC1 [Example 214],≥ 1
11,O=C(Nc1ccc(C[C@H](NC(=O)C2CCN(C(=O)C3CCCC(C(=O)O)C3)CC2)C(=O)O)cc1)c1c(Cl)cccc1Cl (stereo partly shown) [Example 215],≥ 1
12,O=C(O)CNC(=O)N1CCC(C(=O)N[C@@H](Cc2ccc(NC(=O)c3c(Cl)cccc3Cl)cc2)C(=O)O)CC1 [Example 217],≥ 1
13,COc1ccc(C(=O)N2CCC(C(=O)N[C@@H](Cc3ccc(NC(=O)c4c(Cl)cccc4Cl)cc3)C(=O)O)CC2)cc1OC [Example 218],≥ 1
14,O=C(O)c1ccccc1C(=O)N1CCC(C(=O)N[C@@H](Cc2ccc(NC(=O)c3c(Cl)cccc3Cl)cc2)C(=O)O)CC1 [Example 219],≥ 1
15,O=C(O)c1ccc2cc(C(=O)N3CCC(C(=O)N[C@@H](Cc4ccc(NC(=O)c5c(Cl)cccc5Cl)cc4)C(=O)O)CC3)ccc2c1 [Example 221],≥ 1
